According to patent publication US20250319206A1, “CRISPR/CAS GENE EDITING OF NEH4 AND/OR NEH5 DOMAINS IN NRF2” (Christina Care Gene Editing Institute, Inc., priority 2024, published 2025):

What was measured:
Format in all cases: cell-based, Human
Panc-1 cells = assay: Cell viability with gemcitabine, CellTiter-Glo 2.0, Panc-1 cells; conditions: Panc-1 cells, in the absence of gemcitabine
Method: Wildtype and transfected Panc-1 cells were plated to 24 well plates (n=5) at 50,000 cells per well and placed in incubator for 24 hours. The cells were then treated with either Gemcitabine (Selleckchem, Cat. S1714) or DMSO (Thermo Fisher, Cat. D12345). Cells treated with Gemcitabine were treated at one of the following concentrations: 0 μM, 2.5 μM, 5 μM, 25 μM while cells treated with DMSO were treated at: 0%, 0.025%, 0.05%, or 0.25%. Cells remained in Gemcitabine or DMSO for 72 hours before being evaluated using CellTiter-Glo 2.0 Cell Viability Assay (Promega, Cat. G9241).
Since our long-term objective is to develop an effective genetic treatment that would augment standard care, we decided to examine the possibility that we could restore sensitivity to gemcitabine by genetic editing of NRF2 in gemcitabine resistant Panc1 cells. We are using gemcitabine as a selection system to determine if gene editing at some level, can help restore tumor cell killing. We established the kill curve of Panc1 unedited cells by gemcitabine under our standard reaction conditions to serve as a baseline. […] Again, after 72 hours, each cell population was exposed to gemcitabine for an additional 72 hours and thereafter cell viability of the treated and untreated cells was measured using the Cell Titer 2.0 viability assay (Promega, Madison, WI, USA). […]

NRF2 gene = NRF2 gene editing by Sanger sequencing/DECODR in A549 cells; conditions: 72 hours after transfection
Excerpt: FIG. 4A-C: Lung adenocarcinoma cells targeting Exon 3, 4, 5 of NRF2 and assessment of chemotherapy response. (FIG. 4A) A549 cells were transfected with each respective gRNA. Genomic DNA from each cell population was isolated and amplified across exon 3, 4 or 5 of the NRF2 gene. Amplicons were sanger sequenced and analyzed for indels at the CRISPR target site. The graph presents the total editing efficiency listed as Indel and frameshifting indel % listed as FS. (FIG. 4B) Raw sequence files from cells targeted with gRNA 76 or gRNA 83 were aligned using the software program, DECODR, to display the indel pattern (listed as INDEL and %). […] Viability was measured via bioreduction of MTS to a formazan product. […] The average relative viability of cells in response to cisplatin is graphed above.
To assess CRISPR activity across various exons of NRF2, several gRNAs were designed along exon 3, 4 and 5 of the NRF2 gene in the A549 cell line. The A549 cells were transfected with each individually designed gRNA and cells were collected 72 hours after transfection. Genomic DNA was isolated, PCR amplified and Sanger sequenced. Editing activity was quantified using DECODR to deconvolute the indels present in at the cut site of each gRNA. […]

KYSE-410 cells = assay: Chemosensitivity testing, CellTiter-Glo 2.0 cell viability, KYSE-410 cells; conditions: for chemosensitivity to Cisplatin restored: cisplatin 72 hr; for sensitivity to cisplatin: exon 4 targeting
Excerpt: The data was plotted with the coefficient of variance.
To evaluate this approach for broad based applications, we executed the same protocol on KYSE-410 cells which originate from the poorly differentiated invasive esophageal squamous cell carcinoma resected from the cervical esophagus of a person prior to treatment^41. First, we confirmed that the DNA sequence of exon 2 and exon 4 was identical and amenable to targeting with CRISPRs sg3, sg76, or sg83 respectively (data not shown). While this may seem like a trivial matter, it is not, particularly with mutator phenotypes in transformed cells. Plated cells were allowed to recover for 24 hours prior to transfection with the same CRISPR complexes as described in FIG. 12. […] These overall levels are generally considered to be a complete genetic disruption of a mammalian gene. The percentage of frameshift mutations created by the action of these guide RNAs mimics those levels seen previously in FADU cells. […] The expression levels of NRF2, NQO1, HMOX1, and GCLC were also assessed, FIG. 13C. […] This analysis further supports that disruption of NRF2 in exon 4 has a higher impact on overcoming chemosensitivity by disrupting its function of activating downstream genes.

Substance: sg83: gRNA targeting exon 4 of NRF2; GTAGCCCCTGTTGATTTAGA CGG (guide GTAGCCCCTGTTGATTTAGACGG; listed as DNA, chemistry not given here)
- cell killing (Panc-1 cells): approximately 40%
- editing efficiency (comparison among gRNAs) (NRF2 gene): highest editing efficiency
- chemosensitivity to Cisplatin restored (KYSE-410 cells): restored
- sensitivity to cisplatin (KYSE-410 cells): enhanced sensitivity to cisplatin

Substance: sg76: gRNA targeting exon 4 of NRF2; TCACTTGTTCCTGATATTCC CGG (guide TCACTTGTTCCTGATATTCCCGG; listed as DNA, chemistry not given here)
- chemosensitivity to Cisplatin restored (KYSE-410 cells): restored
- sensitivity to cisplatin (KYSE-410 cells): enhanced sensitivity to cisplatin
